Assay results taken from US20230265151A1, “GIP/GLP1 CO-AGONIST COMPOUNDS” (priority 2020, published 2023).
Like-named read-outs stand apart in the source and are kept apart here.

Assays:
[1] = biological target: T1, human GLP-1 receptor (hGLP-1R) (Homo sapiens, UniProt P43220); test: [125I]-GLP-1 binding, SPA with membranes of HEK293 cells expressing hGLP-1R
T1 construct: expressed in transfected cells; crude membranes
Protocol: Two methods are used for the preparation of crude cell membranes.
Method 1: Frozen cell pellets are lysed on ice in hypotonic buffer containing 50 mM Tris HCl, pH 7.5, and Roche Complete™ Protease Inhibitors with EDTA. […] The homogenate is centrifuged at 4° C. at 1100 × g for 10 minutes. The supernatant is collected and stored on ice while the pellets are resuspended in homogenization buffer and rehomogenized as described above. The homogenate is centrifuged at 1100 × g for 10 minutes. The second supernatant is combined with the first supernatant and centrifuged at 35000 × g for 1 hour at 4° C. The resulting membrane pellet is resuspended in homogenization buffer containing protease inhibitors at approximately 1 to 3 mg/mL, quick frozen in liquid nitrogen and stored as aliquots in a -80° C. freezer until use.
The homogenate is centrifuged at 4° C. at 1800 × g for 15 minutes. The supernatant is collected and stored on ice while the pellets are resuspended in homogenization buffer (without DNAse I) and rehomogenized as described above. The homogenate is centrifuged at 1800 × g for 15 minutes. The second supernatant is combined with the first supernatant and centrifuged an additional time at 1800 × g for 15 minutes. The overall supernatant is then centrifuged at 25000 × g for 30 minutes at 4° C. The resulting membrane pellet is resuspended in homogenization buffer (without DNAse I) containing protease inhibitors at approximately 1 to 3 mg/mL and stored as aliquots in a -80° C. freezer until use.
The human GLP-1 receptor binding assay is performed using an SPA format with WGA beads. The binding buffer contains 25 mM HEPES, pH 7.4, 2.5 mM CaCl2, 1 mM MgCl2, 0.1% (w/v) bacitracin, 0.003% (w/v) TWEEN®-20, and Roche Complete™ Protease Inhibitors without EDTA.
Raw CPM data for concentration curves of peptides, Gcg, GLP-1, or GIP are converted to percent inhibition by subtracting nonspecific binding (binding in the presence of excess unlabeled Gcg, GLP-1, or GIP, respectively) from the individual CPM values and dividing by the total binding signal, also corrected by subtracting nonspecific binding. Data are analyzed using four-parameter (curve maximum, curve minimum, IC50, Hill slope) nonlinear regression routines (Genedata Screener, version 12.0.4, Genedata AG, Basal, Switzerland). […] Values for Ki are reported as the geometric mean, with error expressed as the standard error of the mean (SEM) and n is equal to the number of independent replicates (determined in assays performed on different days). Geometric Means are calculated as follows: […]
The Ki Ratio (Ki for native control peptide/Ki for test compound) at each receptor and each species is calculated. The Ki Ratio is a rapid indication of the apparent affinity of a peptide compared to the native control peptide.
n=⅟x means that only one value out of the total number of replicates (x) is used to express the mean. SEM is only calculated when n=2 or greater non-qualified results exist. Means are expressed as GeoMetric means with the standard error of the mean (SEM) and the number of replicates (n) indicated in parenthesis.

[2] = biological target: T2, hGIPR (Homo sapiens, UniProt P48546); test: Functional cAMP formation (HTRF) in HEK-293 clonal cells expressing hGIPR, 0.1% bovine casein, without or with 1.0% human serum albumin; assay type: cell-based; settings: for Emax: percent of maximal response to GIP(1-42)NH2; for EC50: cAMP, 0.1% bovine casein (no human serum albumin), geometric mean
T2 construct: expressed in transfected cells
T2 sequence (P48546 22-466): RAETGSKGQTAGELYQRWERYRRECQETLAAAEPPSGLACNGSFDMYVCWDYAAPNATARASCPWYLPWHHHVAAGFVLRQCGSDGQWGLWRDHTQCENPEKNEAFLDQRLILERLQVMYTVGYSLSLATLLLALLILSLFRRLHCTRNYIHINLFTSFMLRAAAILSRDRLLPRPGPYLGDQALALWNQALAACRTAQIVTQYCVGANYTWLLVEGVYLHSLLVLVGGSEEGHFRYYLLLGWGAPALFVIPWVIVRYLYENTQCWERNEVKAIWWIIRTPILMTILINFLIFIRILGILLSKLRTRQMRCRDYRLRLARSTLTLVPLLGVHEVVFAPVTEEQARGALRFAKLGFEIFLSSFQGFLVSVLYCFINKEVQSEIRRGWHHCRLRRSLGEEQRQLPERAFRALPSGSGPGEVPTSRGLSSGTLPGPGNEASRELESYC
Summary of the method: (§1)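 Readings of the HTRF 665/620 nm ratio, which falls as cAMP rises, were converted to nM cAMP using a standard curve after 30 min peptide exposure at 37° C.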

[3] = biological target: hGLP-1R (Homo sapiens, UniProt P43220); test: Functional cAMP formation (HTRF) in HEK-293 clonal cells expressing hGLP-1R, 0.1% bovine casein, without or with 1.0% human serum albumin; assay type: cell-based; parameters: expressed in transfected cells; settings: for Emax: percent of maximal response to GLP-1(7-36)NH2, arithmetic mean; for EC50: cAMP
Summary of the method: as §1

[4] = biological target: T3, hGCGR (Homo sapiens, UniProt P47871); test: Functional cAMP formation (HTRF) in HEK-293 clonal cells expressing hGCGR, 0.1% bovine casein, without or with 1.0% human serum albumin; assay type: cell-based; settings: cAMP, 37° C.
T3 construct: expressed in transfected cells
Summary of the method: as §1

[5] = human GLP-1R, geometric mean (SEM, n), read-out: Binding Affinity Ki, nM (SEM, n) hGLP-1R
[6] = 37° C., read-out: hGIPR EC50, nM (SEM, n)
[7] = 37° C., 0.1% bovine casein (no human serum albumin), geometric mean, read-out: hGLP-1R EC50, nM (SEM, n)
[8] = 0.1% bovine casein (no human serum albumin), geometric mean, read-out: hGCGR EC50, nM (SEM, n)
[9] = 0.1% bovine casein and 1.0% human serum albumin, geometric mean (SEM, n), read-out: hGCGR EC50, nM (SEM, n)

T3 sequence (P47871 26-477): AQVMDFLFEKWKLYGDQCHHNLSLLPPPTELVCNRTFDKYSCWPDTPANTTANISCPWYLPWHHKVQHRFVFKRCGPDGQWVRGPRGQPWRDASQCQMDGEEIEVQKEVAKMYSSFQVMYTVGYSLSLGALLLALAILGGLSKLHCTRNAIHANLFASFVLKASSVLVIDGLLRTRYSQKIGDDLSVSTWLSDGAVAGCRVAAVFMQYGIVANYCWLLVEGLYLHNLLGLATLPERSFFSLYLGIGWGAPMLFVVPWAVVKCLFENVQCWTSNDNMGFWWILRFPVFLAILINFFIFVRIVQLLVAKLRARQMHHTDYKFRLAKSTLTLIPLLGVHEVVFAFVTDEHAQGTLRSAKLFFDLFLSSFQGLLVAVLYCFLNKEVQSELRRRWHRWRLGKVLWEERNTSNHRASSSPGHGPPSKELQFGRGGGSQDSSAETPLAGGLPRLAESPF
T1 sequence (P43220 24-463): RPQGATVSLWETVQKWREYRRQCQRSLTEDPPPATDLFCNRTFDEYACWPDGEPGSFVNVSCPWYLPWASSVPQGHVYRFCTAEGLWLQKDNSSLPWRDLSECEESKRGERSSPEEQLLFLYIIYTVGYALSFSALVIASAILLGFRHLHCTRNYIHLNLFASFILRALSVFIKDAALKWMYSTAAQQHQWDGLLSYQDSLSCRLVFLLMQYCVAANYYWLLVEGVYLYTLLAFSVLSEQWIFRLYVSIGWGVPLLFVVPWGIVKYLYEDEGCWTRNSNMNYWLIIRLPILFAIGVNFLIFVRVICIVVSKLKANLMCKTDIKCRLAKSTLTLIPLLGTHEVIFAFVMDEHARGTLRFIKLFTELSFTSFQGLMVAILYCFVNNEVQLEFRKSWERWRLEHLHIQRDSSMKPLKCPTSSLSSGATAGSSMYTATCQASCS
Chain of hGLP-1R (P43220 24-463): as above

SMILES	Ki [1] [nM]	Emax ([2]; HEK293, read-out: hGIPR Emax, % ± SEM, cAMP, 37° C., 0.1% bovine casein and 1.0% human serum albumin) [%]	EC50 ([2]; hGIPR EC50, nM (SEM, n), 37° C.) [nM]	Emax ([3]; HEK293, read-out: hGLP-1R Emax, % ± SEM, cAMP, 37° C., 0.1% bovine casein) [%]	EC50 ([3]; hGLP-1R EC50, nM (SEM, n), 37° C., 0.1% bovine casein (no human serum albumin), geometric mean) [nM]	EC50 ([4]; hGCGR EC50, nM (SEM, n), 0.1% bovine casein (no human serum albumin), geometric mean) [nM]	EC50 ([4]; hGCGR EC50, nM (SEM, n), 0.1% bovine casein and 1.0% human serum albumin, geometric mean (SEM, n)) [nM]	Ki [1, 5] [nM]	EC50 [2, 6] [nM]	Emax ([3]; HEK293, cAMP, 37° C., 0.1% bovine casein, read-out: hGLP-1R Emax, % ± SEM) [%]	EC50 [3, 7] [nM]	EC50 [4, 8] [nM]	EC50 [4, 9] [nM]	Emax ([2]; HEK293, cAMP, 37° C., 0.1% bovine casein and 1.0% human serum albumin, read-out: hGIPR Emax, % ± SEM) [%]	Emax ([2]; HEK293, cAMP, 37° C., 0.1% bovine casein, arithmetic mean, read-out: hGIPR Emax, % ± SEM) [%]	EC50 ([3]; 37° C., 0.1% bovine casein and 1.0% human serum albumin, geometric mean (SEM, n), read-out: hGLP-1R EC50, nM (SEM, n)) [nM]
CC[C@H](C)[C@H](NC(=O)[C@H](CC(C)C)NC(=O)[C@](C)(Cc1ccc(O)cc1)NC(=O)[C@H](CCCCNC(=O)COCCOCCNC(=O)CC[C@H](NC(=O)CC[C@H](NC(=O)CC[C@H](NC(=O)CCCCCCCCCOc1ccc(C(=O)O)cc1)C(=O)O)C(=O)O)C(=O)O)NC(=O)[C@@H](NC(=O)[C@H](Cc1ccccc1)NC(=O)[C@H](CCCN)NC(=O)C(C)(C)NC(=O)[C@H](CCC(N)=O)NC(=O)[C@H](C)NC(=O)[C@H](CCC(N)=O)NC(=O)[C@H](CCCN)NC(=O)[C@H](CC(=O)O)NC(=O)[C@H](CC(C)C)NC(=O)[C@](C)(CC(C)C)NC(=O)[C@@H](NC(=O)C(C)(C)NC(=O)[C@H](Cc1ccncc1)NC(=O)[C@H](CC(=O)O)NC(=O)[C@H](CO)NC(=O)[C@@H](NC(=O)[C@](C)(Cc1ccccc1F)NC(=O)[C@@H](NC(=O)CNC(=O)[C@H](CCC(=O)O)NC(=O)C(C)(C)NC(=O)[C@@H](N)Cc1ccc(O)cc1)[C@@H](C)O)[C@@H](C)O)[C@@H](C)CC)[C@@H](C)CC)C(=O)N[C@@H](CCCCNC(=O)COCCOCCNC(=O)CC[C@H](NC(=O)CC[C@H](NC(=O)CC[C@H](NC(=O)CCCCCCCCCOc1ccc(C(=O)O)cc1)C(=O)O)C(=O)O)C(=O)O)C(=O)NCC(=O)NCC(=O)N1CCC[C@H]1C(=O)N[C@@H](CO)C(=O)N[C@@H](CO)C(=O)NCC(=O)N[C@@H](C)C(=O)N1CCC[C@H]1C(=O)N1CCC[C@H]1C(=O)N1CCC[C@H]1C(=O)N[C@@H](CO)C(N)=O [Example 487]	0.217	89.1	0.0161	116	0.199	> 9950	> 9950									
CC[C@H](C)[C@H](NC(=O)[C@H](CC(C)C)NC(=O)[C@](C)(Cc1ccc(O)cc1)NC(=O)[C@H](CCCCNC(=O)CCOCCOCCOCCOCCNC(=O)CC[C@H](NC(=O)CCCCCCCCCCCCC(=O)O)C(=O)O)NC(=O)[C@@H](NC(=O)[C@H](Cc1ccccc1)NC(=O)[C@H](CCCN)NC(=O)C(C)(C)NC(=O)[C@H](CCC(N)=O)NC(=O)[C@H](C)NC(=O)[C@H](CCC(N)=O)NC(=O)[C@H](CCCN)NC(=O)[C@H](CC(=O)O)NC(=O)[C@H](CC(C)C)NC(=O)[C@](C)(CC(C)C)NC(=O)[C@@H](NC(=O)C(C)(C)NC(=O)[C@H](Cc1ccncc1)NC(=O)[C@H](CC(=O)O)NC(=O)[C@H](CO)NC(=O)[C@@H](NC(=O)[C@](C)(Cc1ccccc1F)NC(=O)[C@@H](NC(=O)CNC(=O)[C@H](CCC(=O)O)NC(=O)C(C)(C)NC(=O)[C@@H](N)Cc1ccc(O)cc1)[C@@H](C)O)[C@@H](C)O)[C@@H](C)CC)[C@@H](C)CC)C(=O)N[C@@H](CCCCNC(=O)CCOCCOCCOCCOCCNC(=O)CC[C@H](NC(=O)CCCCCCCCCCCCC(=O)O)C(=O)O)C(=O)NCC(=O)NCC(=O)N1CCC[C@H]1C(=O)N[C@@H](CO)C(=O)N[C@@H](CO)C(=O)NCC(=O)N[C@@H](C)C(=O)N1CCC[C@H]1C(=O)N1CCC[C@H]1C(=O)N1CCC[C@H]1C(=O)N[C@@H](CO)C(N)=O [Example 457]								0.252	0.0106	119	0.185	> 9950	> 9950			
CCCCCCCCCCCC(=O)N[C@@H](CCC(=O)NCCOCCOCC(=O)NCCOCCOCC(=O)NCCOCCOCC(=O)NCCCC[C@H](NC(=O)[C@H](CCCN)NC(=O)[C@H](CC(=O)O)NC(=O)[C@H](CC(C)C)NC(=O)[C@](C)(CC(C)C)NC(=O)[C@@H](NC(=O)C(C)(C)NC(=O)[C@H](Cc1ccncc1)NC(=O)[C@H](CC(=O)O)NC(=O)[C@H](CO)NC(=O)[C@@H](NC(=O)[C@](C)(Cc1ccccc1F)NC(=O)[C@@H](NC(=O)CNC(=O)[C@H](CCC(=O)O)NC(=O)C(C)(C)NC(=O)[C@@H](N)Cc1ccc(O)cc1)[C@@H](C)O)[C@@H](C)O)[C@@H](C)CC)C(=O)N[C@@H](C)C(=O)N[C@@H](CCC(N)=O)C(=O)NC(C)(C)C(=O)N[C@@H](CCCN)C(=O)N[C@@H](Cc1ccccc1)C(=O)N[C@H](C(=O)N[C@H](CCC(=O)O)C(=O)N[C@@](C)(Cc1ccc(O)cc1)C(=O)N[C@@H](CC(C)C)C(=O)N[C@H](C(=O)N[C@@H](CCCCNC(=O)COCCOCCNC(=O)COCCOCCNC(=O)COCCOCCNC(=O)CC[C@H](NC(=O)CCCCCCCCCCC)C(=O)O)C(=O)NCC(=O)NCC(=O)N1CCC[C@H]1C(=O)N[C@@H](CO)C(=O)N[C@@H](CO)C(=O)NCC(=O)N[C@@H](C)C(=O)N1CCC[C@H]1C(=O)N1CCC[C@H]1C(=O)N1CCC[C@H]1C(=O)N[C@@H](CO)C(N)=O)[C@@H](C)CC)[C@@H](C)CC)C(=O)O [Example 434]								0.15	0.00704		0.0837	> 9950	> 9950	97.5	98.3	1.73
